{"source": "patent US8309767B2", "about": "“2-aminobenzoyl derivatives” (Neurim Pharmaceuticals (1991) Ltd., priority 2003, dated 2012)", "key": {"MPTP-treated mice": {"tested_on": "MPTP-treated mice", "assay": "Anti-Parkinsonian activity: motor activity of MPTP-treated mice with/without a subthreshold dose of L-Dopa", "assay_type": "in vivo, C57 BL/6 mice", "details": "for LOCOMOTION / REARING / TOTAL ACTIVITY: mean ± SD", "procedure": "Evaluation of the anti-Parkinsonian activity using MPTP-treated mice with/without a subthreshold dose of L-Dopa\nAnimals: six month old male C57 BL/6 mice, weighing 22-25 g were used. Following arrival at the laboratory, the mice were allowed to acclimatise for two weeks in a room with controlled temperature (21±1° C.), and a constant light-dark schedule (12 hr on/12 hr off, lights on between 06.00 and 18.00 hrs). Free access to food and water was maintained throughout. They were housed in groups of 12 animals and tested only during the hours of light (08.00-15.00 hrs). All testing was performed in a normally lighted room. Each test chamber (i.e. activity test cage) was placed in a soundproofed wooden box with 12 cm thick walls and front panels and had dimmed lighting.\nBehavioral measurements and apparatus: An automated device, consisting of macrolon rodent test cages (40×25×15 cm) each placed within two series of infra-red beams (at two different heights, one low and one high, 2 and 8 cm, respectively, above the surface of the sawdust, 1 cm deep), was used to measure spontaneous and/or drug-induced motor activity of MPTP and control mice. The following parameters were measured: LOCOMOTION was measured by the low grid of infrared beams. Counts were registered only when the mouse in the horizontal plane, ambulating around the test-cage. REARING was registered throughout the time when at least one high level beam was interrupted, i.e. the number of counts registered was proportional to the amount of time spent rearing. TOTAL ACTIVITY was measured by a sensor (a pick-up similar to a gramophone needle, mounted on a lever with a counterweight) with which the test cage was constantly in contact. The sensor registered all types of vibration received from the test cage, such as those produced both by locomotion and rearing as well as shaking, tremors, scratching and grooming.\nBehavioral measurements (locomotion, rearing and total activity): Twelve days after MPTP injections (2×40 mg/kg, s.c., 24 hr interval), the mice were injected i.p with 2-(2-aminobenzoyl)-N-(2,4-dinitrophenyl)ethylamine (0.3, 1, 3, 10 mg/kg) or vehicle (10% DMSO, 1% CMC) and immediately thereafter placed in the activity test chambers and their motor behaviour were monitored for 60 min. After 60 min, the mice were injected with 5 mg/kg L-Dopa (s.c) and then replaced in the test chamber and activity measurements maintained for a further 240 min. Each dose was separated by two days, starting from the lowest dose.\nTable 1 presents the mean (± standard deviations) locomotion, rearing and total activity counts of MPTP-treated and control mice administered either 2-(2-aminobenzoyl)-N-(2,4-dinitrophenyl)ethylamine or vehicle administered with a subthreshold dose of L-Dopa. 1 % level of significance is represented by an asterisk (Tukey HSD test)."}, "NMDA receptors": {"tested_on": "NMDA receptors", "assay": "Electrophysiological characterisation of NMDA-activated currents in freshly isolated hippocampal neurones (whole-cell patch clamp)", "assay_type": "cell-based", "details": "rat hippocampal neurones", "procedure": "Electrophysiological characterisation of NMDA-activated currents in freshly isolated hippocampal neurones of rat.\nIsolation of hippocampal neurons: Wistar rats (12-14 days) were decapitated without anaesthesia and the hippocampus was removed. It was manually cut into slices (0.2-0.4 mm), in a solution containing (mM): 150 NaCl; 5 KCl; 1.25 NaH2PO4; 2 CaCl2; 2 MgCl2; 26 NaHCO3; 20 glucose. Slices were preincubated in this solution for 30 min at room temperature. The enzymatic treatment proceeded in the same solution with lower Ca2+ concentration (0.5 mm) containing 0.4 mg/ml protease from aspergillus oryzae. The incubation in the enzyme solution proceeded at 32° C. within 10 min. […]\nCurrent recording and data analysis: The drug-containing solutions were applied by the fast “concentration clamp” method using “jumping table” set-up (Pharma Robot, Kiev). The currents were recorded with patch clamp technique in the whole-cell configuration. […]\nNMDA-activated currents: The currents were filtered at 3 kHz (three-pole active Bessel filter) digitally sampled at the rate […] for NMDA activated currents. NMDA-induced transmembrane currents were measured in the presence of 10 μM glycine and 300 μM L-aspartate in the control and test solutions. The currents were recorded at holding potential −70 mV. […]"}, "[1]": {"details": "MPTP mice, 0.3 mg/kg i.p. with subthreshold L-Dopa 5 mg/kg s.c."}, "[2]": {"details": "MPTP mice, 1 mg/kg i.p. with subthreshold L-Dopa 5 mg/kg s.c., * 1% significance"}, "[3]": {"details": "MPTP mice, 3 mg/kg i.p. with subthreshold L-Dopa 5 mg/kg s.c., * 1% significance"}, "[4]": {"details": "MPTP mice, 10 mg/kg i.p. with subthreshold L-Dopa 5 mg/kg s.c., * 1% significance"}}, "data": [{"smiles": "Nc1ccccc1C(=O)CCNc1ccc([N+](=O)[O-])cc1[N+](=O)[O-]", "note": "[2-(2-aminobenzoyl)-N-(2,4-dinitrophenyl)ethylamine]", "values": [{"measurement": "locomotion, rearing and total activity of MPTP-treated mice", "setting": "MPTP-treated mice; 1, 3 or 10 mg/kg, compared to the MPTP vehicle group", "value": "improved significantly"}, {"measurement": "LOCOMOTION", "setting": "MPTP-treated mice; [1]", "value": "273 ± 64", "unit": "counts"}, {"measurement": "REARING", "setting": "MPTP-treated mice; [1]", "value": "290 ± 73", "unit": "counts"}, {"measurement": "TOTAL ACTIVITY", "setting": "MPTP-treated mice; [1]", "value": "5160 ± 1093", "unit": "counts"}, {"measurement": "LOCOMOTION", "setting": "MPTP-treated mice; [2]", "value": "473 ± 108", "unit": "counts"}, {"measurement": "REARING", "setting": "MPTP-treated mice; [2]", "value": "582 ± 145", "unit": "counts"}, {"measurement": "TOTAL ACTIVITY", "setting": "MPTP-treated mice; [2]", "value": "6250 ± 625", "unit": "counts"}, {"measurement": "LOCOMOTION", "setting": "MPTP-treated mice; [3]", "value": "510 ± 107", "unit": "counts"}, {"measurement": "REARING", "setting": "MPTP-treated mice; [3]", "value": "731 ± 110", "unit": "counts"}, {"measurement": "TOTAL ACTIVITY", "setting": "MPTP-treated mice; [3]", "value": "6563 ± 781", "unit": "counts"}, {"measurement": "LOCOMOTION", "setting": "MPTP-treated mice; [4]", "value": "470 ± 110", "unit": "counts"}, {"measurement": "REARING", "setting": "MPTP-treated mice; [4]", "value": "619 ± 102", "unit": "counts"}, {"measurement": "TOTAL ACTIVITY", "setting": "MPTP-treated mice; [4]", "value": "6250 ± 625", "unit": "counts"}, {"measurement": "effect on motor behaviour in the first 60-min period before L-Dopa", "setting": "MPTP-treated mice; MPTP mice, any dose (0.3-10 mg/kg i.p.), compared to MPTP-treated vehicle mice", "value": "no effect at any dose"}, {"measurement": "all three behavioural parameters when administered together with a subthreshold dose of L-Dopa", "setting": "MPTP-treated mice; MPTP mice, with L-Dopa 5 mg/kg s.c.", "value": "improved significantly"}, {"measurement": "effect on motor variables in vehicle control animals", "setting": "MPTP-treated mice; vehicle control (non-MPTP) animals", "value": "no effects in any variable"}, {"measurement": "activity on NMDA receptors", "setting": "NMDA receptors", "value": "blocking activity"}]}]}
